Values joined by “and” are separate entries in the source; they are usually repeats but may differ in a detail not shown here. Equal entries are not always repeated.
Experiments:
[1] = target: T1, BCL-2 (Homo sapiens, UniProt P10415); assay: BCL-2 degradation by immunoblot in 293T cells; type: cell-based; settings: for Dmax: HEK-293T
T1 construct: endogenous in cells
Description: (§1) The DC50 and Dmax were calculated using Prism based on the ImageJ-quantified western blots in Supplementary Fig. 4. c, d AlphaLISA assay to determine the formation of BCL-xL/PROTAC/VHL-ELOC-ELOB (VCB) (c) or BCL-2/PROTAC/VCB (d) ternary complex in a cell-free condition. Data represent the mean of a single experiment with 2 technical replicates. Similar results were obtained in one more independent experiment. e, f NanoBRET assays evaluating intracellular BCL-xL/PROTAC/VCB (e) or BCL-2/PROTAC/VCB (f) ternary complex formation. […] Data are expressed as mean ± s.e.m. of three biological replicates. Source data are provided as a Source data file.
(§2) Representative immunoblots are shown in (a–d) and β-actin was used as a loading control in all immunoblot analyses. The normalized protein content in the immunoblots is presented as mean values ± s.e.m. (n = 3 biologically independent experiments) in the bar graph (bottom panel). e, f The formation of BCL-xL/PROTAC/VCB (e) and BCL-2/PROTAC/VCB (f) ternary complexes in a cell-free condition was determined by AlphaLISA assay. Data represent the mean of a single experiment with 2 technical replicates. […] Source data are provided as a Source data file.
(§3) Cells were collected, washed once with ice-cold phosphate-buffered saline, pH 7.2 (PBS, cat. no. 20012027; Thermo Fisher Scientific) and lysed in RIPA lysis buffer (Cat. No. BP-115DG, Boston Bio Products, Ashland, MA, USA) supplemented with protease and phosphatase inhibitor cocktails (Cat. No. PPC1010, Sigma-Aldrich, St. Louis, MO, USA) through sonication. The samples were centrifuged at 14,000 r.p.m. for 5 min and the supernatants were transferred into a new tube. The protein concentration in the supernatants was determined using the Pierce BCA protein Assay kit (cat. no. 23225, Thermo Fisher Scientific). The protein concentration was normalized, and the samples were reduced in 4× Laemmli’s SDS-sample buffer (cat. no. BP-110R, Boston Bio Products) and denatured at 95 °C for 5 min. An equal amount of protein samples (20–40 μg per lane) were resolved using precast 4–20% Tris-glycine gels (Mini-PROTEAN TGX, cat. no. 456–1094, Bio-Rad), and resolved proteins were transferred onto 0.2-µm pore size polyvinylidene difluoride (PVDF) blotting membranes (cat. no. LC2002, Thermo Fisher Scientific) using mini trans-blot electrophoretic transfer cell (Bio-Rad). The membranes were blocked with non-fat dry milk (5% wt/vol) in 1× Tris-buffered saline-Tween-20 (TBST, cat. no. J77500, Affymetrix) for 1 h at room temperature, and were subsequently probed with primary antibodies at a predetermined optimal concentration in non-fat dry milk (5% wt/vol in TBST) overnight at 4 °C. The membranes were washed three times (5 min each) in TBST and then incubated with horse radish peroxidase (HRP)-conjugated secondary antibodies for 1 h at room temperature. Following sufficient washing with TBST, the membranes were exposed with chemiluminescent HRP substrate (cat. no. WBKLS0500, MilliporeSigma), and the signal was detected using the ChemiDoc MP Imaging System (Bio-Rad) and quantified using the ImageJ (v1.53a) software from NIH.

[2] = target: T2, BCL-xL (Homo sapiens, UniProt Q07817); assay: BCL-xL degradation by immunoblot in 293T cells; type: cell-based; settings: for Dmax: HEK-293T
T2 construct: endogenous in cells
Description: as §1, §2, §3

[3] = target: T3, BCL-2/PROTAC/VCB ternary complex (Homo sapiens, UniProt P10415+P40337); assay: AlphaLISA ternary complex formation, cell-free, BCL-2; type: binding; settings: for in vitro ternary complex formation with BCL-2 (in words): AlphaLISA, cell-free, Fig. 2d, 3f; for AlphaLISA signal, BCL-2/PROTAC/VCB: Fig. 2d raw Alpha reads
T3 construct: pGEX-6P-1-VHL(54-213) (pDL2200) was constructed through Gibson assembly method; made in house; host or cells: bacterial culture (LB broth, IPTG induction)
Description: (§4) AlphaLISA assay was used to evaluate the in vitro ternary complex formation between target proteins (BCL-xL or BCL-2), PROTAC and E3 ligase (VCB complex). In each well, 5 nM His-tagged BCL-xL or BCL-2 proteins and 5 nM GST-VCB complex was incubated with varying concentrations of compounds in fourfold serial dilutions, to a final volume of 40 µl in a 96-well PCR plate. After incubation at room temperature for 30 min, 5 µl alpha glutathione-donor beads (Cat. No. 6765300, PerkinElmer) were added to each well (20 µg/ml final concentration) and incubated for another 15 min. Thereafter, 5 µL 6× His-acceptor beads were added to each well (20 µg/ml final concentration) and incubated for an additional 45 min at room temperature. Thereafter, 17 µl of each sample was transferred in adjacent wells of a 384-well proxy plate, and the plate was scanned using the Alpha program on Biotek’s Synergy Neo2 multimode plate reader. The data were expressed as average AlphaLISA signal and plotted against different concentrations of compounds using GraphPad Prism 9 software.

[4] = target: T4, BCL-xL/PROTAC/VHL-ELOC-ELOB (VCB) ternary complex (Homo sapiens, UniProt P40337+Q07817); assay: AlphaLISA ternary complex formation, cell-free, BCL-xL; type: binding; settings: for in vitro ternary complex formation with BCL-xL (in words): AlphaLISA, cell-free, Fig. 2c, 3e; for AlphaLISA signal, BCL-xL/PROTAC/VCB: Fig. 2c raw Alpha reads
T4 construct: pGEX-6P-1-VHL(54-213) (pDL2200) was constructed through Gibson assembly method; made in house; host or cells: bacterial culture (LB broth, IPTG induction)
Description: as §4

[5] = compound 200000 nM, 2 technical replicates

T2 sequence (Q07817 whole entry): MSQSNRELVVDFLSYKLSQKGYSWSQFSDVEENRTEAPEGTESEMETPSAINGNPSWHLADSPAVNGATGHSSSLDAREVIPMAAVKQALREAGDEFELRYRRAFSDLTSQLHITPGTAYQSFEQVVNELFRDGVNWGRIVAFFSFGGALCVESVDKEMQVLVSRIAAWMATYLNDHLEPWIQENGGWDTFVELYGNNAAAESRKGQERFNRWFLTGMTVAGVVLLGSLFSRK
T3 sequence (P10415 1-211 limits assumed): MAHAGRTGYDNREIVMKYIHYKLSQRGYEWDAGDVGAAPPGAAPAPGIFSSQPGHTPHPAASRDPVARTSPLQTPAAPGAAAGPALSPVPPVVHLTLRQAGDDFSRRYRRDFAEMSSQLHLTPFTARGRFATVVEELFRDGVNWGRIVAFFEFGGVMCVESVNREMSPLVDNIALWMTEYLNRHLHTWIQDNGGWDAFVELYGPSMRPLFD
T3 sequence (P40337 54-213 limits assumed): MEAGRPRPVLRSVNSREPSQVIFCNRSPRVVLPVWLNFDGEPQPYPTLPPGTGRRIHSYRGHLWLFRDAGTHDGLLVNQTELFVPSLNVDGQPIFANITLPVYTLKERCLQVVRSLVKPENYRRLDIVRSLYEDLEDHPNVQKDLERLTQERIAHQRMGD
T3 sequence (Q15369 17-112 partner limits assumed): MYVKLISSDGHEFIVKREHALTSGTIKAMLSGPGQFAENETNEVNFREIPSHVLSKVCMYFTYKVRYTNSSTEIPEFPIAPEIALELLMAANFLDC
T3 sequence (Q15370 whole entry partner): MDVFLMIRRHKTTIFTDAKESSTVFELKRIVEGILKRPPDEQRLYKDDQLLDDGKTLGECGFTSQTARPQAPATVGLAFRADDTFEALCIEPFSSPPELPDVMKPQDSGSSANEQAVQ
T1 sequence (P10415 whole entry): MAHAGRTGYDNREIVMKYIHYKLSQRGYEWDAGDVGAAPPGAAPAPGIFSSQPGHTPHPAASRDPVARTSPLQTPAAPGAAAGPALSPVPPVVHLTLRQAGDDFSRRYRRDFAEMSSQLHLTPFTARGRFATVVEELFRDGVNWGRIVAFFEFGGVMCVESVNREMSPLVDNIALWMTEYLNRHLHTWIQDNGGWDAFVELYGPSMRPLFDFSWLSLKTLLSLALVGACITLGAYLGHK
T4 sequence (Q07817 1-212 limits assumed): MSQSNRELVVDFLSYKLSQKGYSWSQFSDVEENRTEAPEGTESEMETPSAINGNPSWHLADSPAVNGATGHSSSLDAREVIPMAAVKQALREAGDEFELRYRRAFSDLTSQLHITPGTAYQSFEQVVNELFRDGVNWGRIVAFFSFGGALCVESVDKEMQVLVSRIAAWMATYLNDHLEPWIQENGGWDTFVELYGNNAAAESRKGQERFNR
T4 sequence (P40337 54-213 limits assumed): as the sequence (P40337 54-213 limits assumed) above
T4 sequence (Q15369 17-112 partner limits assumed): as the sequence (Q15369 17-112 partner limits assumed) above
T4 sequence (Q15370 whole entry partner): as the sequence (Q15370 whole entry partner) above

SMILES | Dmax [1] [%] | Dmax [2] [%] | in vitro ternary complex formation with BCL-2 (in words) [3] | AlphaLISA signal, BCL-2/PROTAC/VCB ([3]; compound 0.191 nM) | AlphaLISA signal, BCL-2/PROTAC/VCB ([3]; compound 0.763 nM) | AlphaLISA signal, BCL-2/PROTAC/VCB ([3]; compound 3.052 nM) | AlphaLISA signal, BCL-2/PROTAC/VCB ([3]; compound 12.207 nM) | AlphaLISA signal, BCL-2/PROTAC/VCB ([3]; compound 48.828 nM) | AlphaLISA signal, BCL-2/PROTAC/VCB ([3]; compound 195.31 nM) | AlphaLISA signal, BCL-2/PROTAC/VCB ([3]; compound 781.25 nM) | AlphaLISA signal, BCL-2/PROTAC/VCB ([3]; compound 3125 nM) | AlphaLISA signal, BCL-2/PROTAC/VCB ([3]; compound 12500 nM) | AlphaLISA signal, BCL-2/PROTAC/VCB ([3]; compound 50000 nM) | AlphaLISA signal, BCL-2/PROTAC/VCB [3, 5] | in vitro ternary complex formation with BCL-xL (in words) [4] | AlphaLISA signal, BCL-xL/PROTAC/VCB ([4]; compound 0.191 nM) | AlphaLISA signal, BCL-xL/PROTAC/VCB ([4]; compound 0.763 nM) | AlphaLISA signal, BCL-xL/PROTAC/VCB ([4]; compound 3.052 nM) | AlphaLISA signal, BCL-xL/PROTAC/VCB ([4]; compound 12.207 nM) | AlphaLISA signal, BCL-xL/PROTAC/VCB ([4]; compound 48.828 nM) | also measured
Cc1ncsc1-c1ccc([C@H](C)NC(=O)[C@@H]2C[C@@H](O)CN2C(=O)[C@@H](NC(=O)CCCCCCCCC(=O)N2CCN(CC3(C)CCC(c4ccc(Cl)cc4)=C(CN4CCN(c5ccc(C(=O)NS(=O)(=O)c6ccc(N[C@H](CCN7CCOCC7)CSc7ccccc7)c(S(=O)(=O)C(F)(F)F)c6)cc5)CC4)C3)CC2)C(C)(C)C)cc1 (stereo partly drawn) [PPC10] | 69 | 81 | much weaker ternary complexes | 13116 and 18939 | 20209 and 15528 | 15560 and 16756 | 23256 and 23865 | 69142 and 68261 | 218425 and 202826 | 114837 and 140035 | 20525 and 27108 | 13932 and 13026 | 10041 and 13037 | 11345 and 10101 | much weaker ternary complexes | 14831 and 16852 | 20168 and 16739 | 14541 and 18037 | 19478 and 16699 | 33222 and 36251 | BCL-2 degradation (in words) ([1]; 293T cells, 16 h): also degraded BCL-2; DC50 ([1]; 293T cells, four concentrations, 16 h, Fig. 2b, read-out: BCL-2 DC50): 355 nM; DC50 ([2]; 293T cells, four concentrations, 16 h, Fig. 2b, read-out: BCL-xL DC50): 12.1 nM; AlphaLISA signal, BCL-xL/PROTAC/VCB ([4]; compound 195.31 nM): 136427 and 150589; AlphaLISA signal, BCL-xL/PROTAC/VCB ([4]; compound 781.25 nM): 133700 and 133335; AlphaLISA signal, BCL-xL/PROTAC/VCB ([4]; compound 12500 nM): 16869 and 17291; AlphaLISA signal, BCL-xL/PROTAC/VCB ([4]; compound 50000 nM): 11499 and 11443; AlphaLISA signal, BCL-xL/PROTAC/VCB [4, 5]: 9101 and 11295
Cc1ncsc1-c1ccc([C@H](C)NC(=O)[C@@H]2C[C@@H](O)CN2C(=O)[C@@H](NC(=O)CCCCCCCCCC(=O)N2CCN(CC3(C)CCC(c4ccc(Cl)cc4)=C(CN4CCN(c5ccc(C(=O)NS(=O)(=O)c6ccc(N[C@H](CCN7CCOCC7)CSc7ccccc7)c(S(=O)(=O)C(F)(F)F)c6)cc5)CC4)C3)CC2)C(C)(C)C)cc1 (stereo partly drawn) [PPC11] | 38 | 38 | much weaker ternary complexes | 16751 and 14492 | 17062 and 15173 | 17477 and 13618 | 15016 and 16035 | 21071 and 20895 | 36395 and 36207 | 16303 and 18907 | 17856 and 16482 | 13061 and 15598 | 10324 and 9718 | 13464 and 10765 | much weaker ternary complexes | 14159 and 17511 | 19035 and 14403 | 18192 and 15524 | 16016 and 15699 | 18370 and 17440 | AlphaLISA signal, BCL-xL/PROTAC/VCB ([4]; compound 195.31 nM): 28376 and 33281; AlphaLISA signal, BCL-xL/PROTAC/VCB ([4]; compound 781.25 nM): 25822 and 27451; AlphaLISA signal, BCL-xL/PROTAC/VCB ([4]; compound 3125 nM): 15301 and 22197; AlphaLISA signal, BCL-xL/PROTAC/VCB ([4]; compound 12500 nM): 15507 and 16950; AlphaLISA signal, BCL-xL/PROTAC/VCB ([4]; compound 50000 nM): 13057 and 15839; AlphaLISA signal, BCL-xL/PROTAC/VCB [4, 5]: 17326 and 15566
